Reference: BindingDB's records for PubMed 11714892 (Recordati, 2001)

Columns and labels:
[1] = biological target: T1, 5-hydroxytryptamine receptor 1A (Rattus norvegicus, UniProt P19327)
T1 sequence (P19327 whole entry): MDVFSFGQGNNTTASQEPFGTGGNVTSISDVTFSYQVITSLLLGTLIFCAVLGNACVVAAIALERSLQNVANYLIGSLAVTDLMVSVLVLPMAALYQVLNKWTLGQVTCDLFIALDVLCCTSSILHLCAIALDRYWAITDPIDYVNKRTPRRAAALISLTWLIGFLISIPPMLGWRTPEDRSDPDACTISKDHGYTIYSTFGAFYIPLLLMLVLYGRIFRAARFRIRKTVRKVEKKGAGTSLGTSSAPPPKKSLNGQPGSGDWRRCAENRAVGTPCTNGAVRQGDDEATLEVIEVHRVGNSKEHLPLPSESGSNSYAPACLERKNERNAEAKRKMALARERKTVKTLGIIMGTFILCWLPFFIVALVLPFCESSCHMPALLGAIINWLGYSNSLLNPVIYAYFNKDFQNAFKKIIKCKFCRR

[2] = biological target: T2, Alpha-1A adrenergic receptor (Homo sapiens, UniProt P35348)
T2 sequence (P35348 whole entry): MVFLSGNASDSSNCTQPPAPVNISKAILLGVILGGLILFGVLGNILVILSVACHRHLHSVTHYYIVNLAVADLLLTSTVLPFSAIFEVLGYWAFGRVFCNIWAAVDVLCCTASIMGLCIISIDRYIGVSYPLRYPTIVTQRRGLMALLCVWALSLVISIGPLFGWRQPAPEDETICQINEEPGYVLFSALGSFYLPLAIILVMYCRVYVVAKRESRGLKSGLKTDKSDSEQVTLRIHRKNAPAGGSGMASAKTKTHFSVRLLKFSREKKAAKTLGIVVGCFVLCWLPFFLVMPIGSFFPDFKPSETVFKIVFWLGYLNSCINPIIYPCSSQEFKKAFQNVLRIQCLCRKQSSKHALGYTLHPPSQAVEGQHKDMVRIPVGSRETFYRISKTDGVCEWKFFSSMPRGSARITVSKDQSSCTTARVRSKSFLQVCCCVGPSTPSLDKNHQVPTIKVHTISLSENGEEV

[3] = biological target: T3, Alpha-1B adrenergic receptor (Homo sapiens, UniProt P35368)
T3 sequence (P35368 whole entry): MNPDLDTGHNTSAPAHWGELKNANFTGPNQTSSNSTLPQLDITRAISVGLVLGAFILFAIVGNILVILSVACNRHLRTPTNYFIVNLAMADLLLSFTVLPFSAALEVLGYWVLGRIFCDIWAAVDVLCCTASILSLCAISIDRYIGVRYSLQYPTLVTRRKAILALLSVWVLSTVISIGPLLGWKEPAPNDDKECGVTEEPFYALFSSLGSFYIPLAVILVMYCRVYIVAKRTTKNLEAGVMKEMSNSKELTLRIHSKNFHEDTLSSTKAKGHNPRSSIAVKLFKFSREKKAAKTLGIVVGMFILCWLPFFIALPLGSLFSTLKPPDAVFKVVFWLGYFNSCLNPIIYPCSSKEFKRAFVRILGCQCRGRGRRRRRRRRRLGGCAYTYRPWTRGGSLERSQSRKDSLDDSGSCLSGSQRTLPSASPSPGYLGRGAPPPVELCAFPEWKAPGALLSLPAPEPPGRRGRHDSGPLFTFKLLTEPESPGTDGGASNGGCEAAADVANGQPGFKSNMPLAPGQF

[4] = biological target: T4, Alpha-1D adrenergic receptor (Homo sapiens, UniProt P25100)
T4 sequence (P25100 whole entry): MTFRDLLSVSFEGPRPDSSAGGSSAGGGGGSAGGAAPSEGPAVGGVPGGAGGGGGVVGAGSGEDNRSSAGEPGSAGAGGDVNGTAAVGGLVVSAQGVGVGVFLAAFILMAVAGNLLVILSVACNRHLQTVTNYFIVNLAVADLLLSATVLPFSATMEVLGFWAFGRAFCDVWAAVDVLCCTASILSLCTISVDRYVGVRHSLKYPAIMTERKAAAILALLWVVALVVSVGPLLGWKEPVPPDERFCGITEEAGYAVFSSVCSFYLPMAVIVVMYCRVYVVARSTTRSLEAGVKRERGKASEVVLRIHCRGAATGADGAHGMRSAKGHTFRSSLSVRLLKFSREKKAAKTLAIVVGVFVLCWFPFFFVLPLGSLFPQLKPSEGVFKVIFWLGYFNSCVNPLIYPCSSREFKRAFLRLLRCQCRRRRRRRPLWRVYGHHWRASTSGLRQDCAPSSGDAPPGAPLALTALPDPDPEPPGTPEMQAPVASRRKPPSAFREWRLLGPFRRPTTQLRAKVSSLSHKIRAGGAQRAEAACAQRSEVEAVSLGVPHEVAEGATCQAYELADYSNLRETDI

Ki [1]: 0.7 nM | Ki [2]: 81 nM | Ki [3]: 105 nM | Ki [4]: 5.7 nM
SMILES: COc1ccccc1N1CCN(CCN(C(=O)C2CCCCC2)c2ccccc2[N+](=O)[O-])CC1 [N-[2-[4-(2-methoxyphenyl)-1-piperazinyl]-ethyl]-N-(2-nitrophenyl)cyclohexanecarboxamide]
